In US20090131528A1, “SALT” (priority 2006, published 2009):
Counter-ions that a name gives are not always drawn.

What was measured:
[1] = Hygroscopicity, general statement; format: physicochemical
physchem = assay: physchem
Excerpt: The active ingredient aliskiren is the free base which is described specifically in EP 678503 A and it has one basic group, the amino group in position 5. […] Accordingly, one acidic group can bind to the nitrogen lone pairs of the amino group.

[2] = 1-Week Chemical Stability Test, total impurities by HPLC-UV 230 nm; format: physicochemical
Excerpt: (§1) The exceptional stability of the nitrate salt of aliskiren towards water may also be shown in stability tests.

[3] = Stability test towards water, water content on storage; format: physicochemical; conditions: open container and sealed ampoule, four weeks at 40° C. and 75% relative humidity
Excerpt: as §1

[4] = Dynamic vapour sorption (DVS-1), isothermal water absorption or loss; format: physicochemical; conditions: for Change in Mass (%) Desorption / Change in Mass (%) Sorption: 25° C., 2 hours after equilibration
Excerpt: A clear characterisation of this property is achieved by means of isothermal measurements over predetermined time intervals and predetermined relative humidity using dynamic vapour sorption (DVS-1 from the company Surface Measurement Systems LTD, Marlow, Buckinghamshire, UK). […] The measurement error of this sorption method based on thermogravimetry is about 0.1%.

Compound: COCCCOc1cc(C[C@@H](C[C@H](N)[C@@H](O)C[C@H](C(=O)NCC(C)(C)C(N)=O)C(C)C)C(C)C)ccc1OC [aliskiren, 2(S),4(S),5(S),7(S)—N-(3-amino-2,2-dimethyl-3-oxopropyl)-2,7-di(1-methylethyl)-4-hydroxy-5-amino-8-[4-methoxy-3-(3-methoxy-propoxy)phenyl]-octanamide]
- hygroscopicity [1]: highly hygroscopic
- pKa (physchem): 9.79

Compound: COCCCOc1cc(C[C@@H](C[C@H](N)[C@@H](O)C[C@H](C(=O)NCC(C)(C)C(N)=O)C(C)C)C(C)C)ccc1OC [HemiFumarate]
- Total Impurities (HPLC-UV, 230 nm), % ([2]; 1 week, 50 C. sealed): 1.1%
- Total Impurities (HPLC-UV, 230 nm), % ([2]; 1 week, 50 C./75% RH): 9.3%
- Total Impurities (HPLC-UV, 230 nm), % ([2]; 1 week, 80 C. sealed): 18.1%
- Total Impurities (HPLC-UV, 230 nm), % ([2]; 1 week, 80 C./75% RH): 64.3%
- Total Impurities (HPLC-UV, 230 nm), % ([2]; Unstressed): 1.1%

Compound: COCCCOc1cc(C[C@@H](C[C@H](N)[C@@H](O)C[C@H](C(=O)NCC(C)(C)C(N)=O)C(C)C)C(C)C)ccc1OC [nitrate salt of aliskiren]
- water content [3]: remains constant
- water absorption or loss ([4]; DVS conditions employed, measurement error about 0.1%): no measurable water absorption or loss
- hygroscopicity ([4]; DVS, up to 95% RH): non-hygroscopic
- moisture uptake ([4]; at 95% RH): 0.3%
- Change in Mass (%) Desorption ([4]; relative humidity 0%): −0.0060%
- Change in Mass (%) Sorption ([4]; relative humidity 0%, 39.4 mg sample): 0.0001%
- Change in Mass (%) Desorption ([4]; relative humidity 25%): 0.0326%
- Change in Mass (%) Sorption ([4]; relative humidity 25%): 0.0269%
- Change in Mass (%) Desorption ([4]; relative humidity 50%): 0.0842%
- Change in Mass (%) Sorption ([4]; relative humidity 50%): 0.0821%
- Change in Mass (%) Desorption ([4]; relative humidity 75%): 0.1495%
- Change in Mass (%) Sorption ([4]; relative humidity 75%): 0.1425%
- Change in Mass (%) Desorption ([4]; relative humidity 85%): 0.1938%
- Change in Mass (%) Sorption ([4]; relative humidity 85%): 0.1864%
- Change in Mass (%) Desorption ([4]; relative humidity 95%): 0.3091%
- Change in Mass (%) Sorption ([4]; relative humidity 95%): 0.3091%
- Total Impurities (HPLC-UV, 230 nm), % ([2]; 1 week, 50 C. sealed, listed as Nitrate): 1.0%
- Total Impurities (HPLC-UV, 230 nm), % ([2]; 1 week, 50 C./75% RH, listed as Nitrate): 1.0%
- Total Impurities (HPLC-UV, 230 nm), % ([2]; 1 week, 80 C. sealed, listed as Nitrate): 1.0%
- Total Impurities (HPLC-UV, 230 nm), % ([2]; 1 week, 80 C./75% RH, listed as Nitrate): 1.1%
